Results: US20240390301A1, “COMBINATIONS OF PERIPHERAL 5-HT2A RECEPTOR ANTAGONISTS AND CENTRAL 5-HT2A RECEPTOR AGONISTS” (priority 2021, published 2024)

How the values were obtained:
[1] = test system: DOPR-induced head twitch response (HTR); test: Blockade of DOPR-induced head twitch response (HTR) in rats; format: in vivo, Sprague-Dawley rats; conditions: for Attenuation of the HTR to DOPR (significance vs. vehicle): all doses tested, SC, Dunnett's multiple comparison test; for Mean HTR (SEM): 10 min before DOPR 0.32 mg/kg SC, HTRs counted for 20 min
Procedure: FIG. 1 graphically depicts in a bar graph the effect of xylamidine pre-treatment on the HTR induced by DOPR in the rat. The indicated doses of xylamidine or vehicle were administered SC. followed 10 minutes later by DOPR (0.32 mg/kg, SC), and HTRs were counted for 20 minutes immediately after DOPR administration (10-30 min after administration of xylamidine). […] In FIG. 2, the effect of BW501C67 pre-treatment on the HTR induced by DOPR in the rat is depicted graphically in a bar graph. […] FIG. 4 graphically depicts in a bar graph the effect of sarpogrelate pre-treatment on the HTR induced by DOPR in the rat.
Animals. Adult male Sprague-Dawley rats aged 8 weeks (body weight ˜270 g) were used in these experiments. Animals were pair housed under controlled temperatures and 12-hour light/dark cycles (lights on between 07:00-19:00 h), with ad libitum food and water. The protocol was approved by the Eurofins Advinus Institutional Animal Care and Use Committee. This study was carried out in strict accordance with the recommendations in the Guide for the Care and Use of Laboratory Animals of the National Institutes of Health. All efforts were made to minimize suffering.
Drugs and Drug Administration. Test compounds were prepared as described above or commercially obtained. Drugs were dissolved in their respective vehicle solutions (see Table 4) and administered subcutaneously (SC) in a volume of 5 mL/kg (except for the experiment with sarpogrelate, where a volume of […] was used). […] The 5-HT2A receptor agonist DOPR was then administered at 1 dose (0.32 mg/kg, SC, in saline, calculated based on the free base) to all animals 10 min after pretreatment with the test peripheral antagonist or vehicle.
Procedure. Rats were administered one dose (0.01 to 100 mg/kg, SC, as indicated) of a test peripheral antagonist (or vehicle) 10 mins prior to administration of DOPR (0.32 mg/kg, SC). After administration of DOPR, rats were immediately placed into a small open field for behavioral observation.
Statistical analysis. The data points shown in Table 4 are the mean±standard error of the mean (SEM). Statistical comparisons were performed between each peripheral antagonist treatment group and its respective vehicle treatment group using Dunnett's multiple comparison test. Analysis was performed using GraphPad Prism 6.

in vitro = conditions: for fraction unbound at 4 h, 5 μM: pH 7.4
Procedure: Method 1. Aliquots of 50 μL loading matrix containing test compound (2 μM final incubation concentration) or control compound in triplicate were transferred to a Sample Collection Plate. The samples were matched with opposite blank buffer to obtain a final volume of 100 μL, with a volume ratio of matrix: Dialysis Buffer of 1:1 (v:v) in each well. Stop solution (200 ng/ml tolbutamide and 200 ng/mL labetalol in ACN) was added to these TO samples of test compound and control compound. The plate was sealed and shaken at 800 rpm for 10 min. An aliquot of 100 μL of the loading matrix containing test compound or control compound was transferred to the donor side of each dialysis well in triplicate and 100 μL of the Dialysis Buffer was loaded to the receiver side of the well. Then the plate was rotated at approximately 100 rpm in a humidified incubator with 5% CO2 at 37±1° C. for 4 hours. At the end of the dialysis, aliquots of 50 μL samples from the buffer side and matrix side of the dialysis device were taken into new 96-well plates (Sample Collection Plates). An equal volume of opposite blank matrix (buffer or matrix) in each sample was added to reach a final volume of 100 μL, with volume ratio of matrix: Dialysis Buffer of 1:1 (v:v) in each well. All samples were further processed by protein precipitation before LC-MS/MS analysis.
Method 2. Aliquots (200 μL) of positive controls and test compounds at 5 μM (triplicates) were separately added to the plasma chamber and […] of phosphate buffered saline (pH 7.4) was added to the buffer chamber of the inserts. After sealing the rapid equilibrium dialysis (RED) device with an adhesive film, dialysis was performed in an incubator at 37° C. with shaking at 100 RPM for 4 hours. Aliquots (50 μL) of warfarin and test compounds were added to four 0.5 mL micro fuse tubes. Two aliquots were frozen immediately (0-minute sample). The other two aliquots were incubated at 37° C. for 4 hours along with the RED device. Following dialysis, an aliquot of 50 μL was removed from each well (both plasma and buffer side) and diluted with an equal volume of opposite matrix (dialyzed with the other matrix) to nullify the matrix effect. Similarly, 50 μL of buffer was added to recovery and stability samples. An aliquot of 100 μL was used for LC-MS/MS analysis following protein precipitation with ACN containing internal standard.

[2] = Metabolic stability in rat liver microsomes; format: in vitro ADME; conditions: for half-life at 1 μM / microsomal CLint at 1 μM: both sexes, rat, microsomes, pH 7.4
Procedure: RLM Stability. Pooled RLM from adult male and female donors (Xenotech R1000) were used. Microsomal incubations were carried out in multi-well plates. Liver microsomal incubation medium consisted of PBS (100 mM, pH 7.4), MgCl2 (1 mM), and NADPH (1 mM), with 0.50 mg of liver microsomal protein per mL. Control incubations were performed by replacing the NADPH-cofactor system with PBS. Test compounds (1 μM, final solvent concentration 1.0%) were incubated with microsomes at 37° C. with constant shaking. Six time points over 60 minutes were analyzed, with 60 μL aliquots of the reaction mixture being drawn at each time point. The reaction aliquots were stopped by adding 180 μL of cold (4° C.) acetonitrile containing 200 ng/mL tolbutamide and 200 ng/ml labetalol as internal standards (IS), followed by shaking for 10 minutes, and then protein sedimentation by centrifugation at 4,000 rpm for 20 minutes at 4° C. Supernatant samples (80 μL) were diluted with water (240 μL) and analyzed for parent compound remaining using a fit-for-purpose liquid chromatography-tandem mass spectrometry (LC-MS/MS) method.
Data Analysis. The elimination constant (kel), half-life (t1/2), and intrinsic clearance (CLint) were determined in a plot of […] versus time, using linear regression analysis.

[3] = RLM, 1 μM, 0.50 mg protein per mL, NADPH

| SMILES | Attenuation of the HTR to DOPR (significance vs. vehicle) [1] | Mean HTR (SEM) ([1]; antagonist 0.01 mg/kg SC) | Mean HTR (SEM) ([1]; antagonist 0.1 mg/kg SC) | Mean HTR (SEM) ([1]; antagonist 1 mg/kg SC) | Mean HTR (SEM) ([1]; antagonist 10 mg/kg SC) | fraction unbound at 4 h, 2 μM (in vitro; rat, plasma) | Metabolic stability in RLM [2] | half-life at 1 μM [2, 3] [min] | microsomal CLint at 1 μM [2, 3] [µL/min/mg] | fraction unbound at 4 h, 5 μM (in vitro; rat, plasma) | Mean HTR (SEM) ([1]; antagonist 3 mg/kg SC) | Mean HTR (SEM) ([1]; antagonist 30 mg/kg SC) | Mean HTR (SEM) ([1]; antagonist 100 mg/kg SC) | Mean % bound (rat plasma protein binding) (in vitro; Method 2: RED, 5 μM, 4 hours, 37° C.) [%] | Clint [2, 3] [µL/min/mg] | t1/2 [2, 3] [min] |
| --- | --- | --- | --- | --- | --- | --- | --- | --- | --- | --- | --- | --- | --- | --- | --- | --- |
| CC(CNC(=N)CNc1ccccc1)Oc1cccc(Cl)c1.O=CO (centres unmarked) [BW501C67, N-(2-(3-chlorophenoxy)propyl)-2-(phenylamino)acetimidamide formate] | not statistically significant | 5.83 | 2.67 | 5.33 | 4.33 | 0.107 | poor metabolic stability | 2.1 | 658 |  |  |  |  |  |  |  |
| CC(C)COc1ccc(CNC(=O)N(Cc2ccc(F)cc2)C2CCN(C(=O)CC[C@H](N)C(=O)O)CC2)cc1 [Compound 14a, (S)-2-amino-5-(4-(1-(4-fluorobenzyl)-3-(4-isobutoxybenzyl)ureido)piperidin-1-yl)-5-oxopentanoic acid] | statistically significant attenuation of the HTR | 2.50 | 2.00 | 2.17 | 1.83 |  | highly stable | > 145 | < 9.6 | 0.06 |  |  |  |  |  |  |
| COc1cccc(CCc2ccccc2OCC(CN(C)C)OC(=O)CCC(=O)O)c1 (centres unmarked) [sarpogrelate] | statistically significant attenuation of the HTR |  |  | 2.33 | 1.33 |  |  |  |  | 0.002 | 1.83 | 1.33 | 0.33 |  |  |  |
| COc1cccc(C(=O)Nc2ccc(OCCN3CCOCC3)c(-c3ccnn3C)c2)c1 [temanogrel] |  |  |  |  |  |  |  |  |  | 0.091 |  |  |  |  |  |  |
| COc1cccc(OC(C)CNC(=N)Cc2cccc(C)c2)c1.O=C(O)C(F)(F)F (centres unmarked) [xylamidine, N-(2-(3-methoxyphenoxy)propyl)-2-(m-tolyl) acetimidamide trifluoroacetate] | not statistically significant | 7.33 | 5.00 | 3.17 | 2.83 |  | poor metabolic stability |  |  |  |  |  |  | 65.6 | 709.1 | 2.0 |
